Test results: patent US20240025906A1 (NEURON23, INC., priority 2022, published 2024)

Tests used:
TYK2 JH2 = target: T1, TYK2 JH2 (Homo sapiens, UniProt P29597); test: TYK2 JH2 binding assay (KINOMEscan KdELECT competitive binding); conditions: TYK2 JH2 domain, KINOMEscan KdELECT (Assay A); read-out: Biochemical TYK2_DiscoverX_JH2_BND_Kd
T1 construct: purchased DiscoverX (KINOMEscan KdELECT service); host or cells: E. coli BL21-derived (T7 phage display) or HEK-293
Summary of the method: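 The assay measures displacement of DNA- or phage-tagged TYK2 pseudokinase domain from an affinity resin; compound binding lowers the amount captured, read by qPCR. Incubation lasts 1 h at room temperature.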

[1] = test system: JAK1/TYK2 pSTAT5 (Tyr694/699) in THP-1 cell line; test: IFNa-stimulated JAK1/TYK2 pSTAT5 (Tyr694/699) inhibition cellular assay, AlphaLISA; assay type: cell-based; conditions: Homo sapiens; THP-1 cells, IFNa-stimulated pSTAT5 (Tyr694/699), AlphaLISA (Assay B); read-out: Cellular_THP1_IFNa-pSTATS_TYK2
Summary of the method: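 Compound dilutions were dispensed first, and HBSS-suspended THP-1 cells were added on top (final top concentration 10000 nM, 6-fold series). After 1 h at 37 °C, IFNa (100 ng/mL as added) was applied for 30 min. Cells were then lysed and pSTAT5 was quantified by AlphaLISA.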

T1 sequence (P29597 589-875 limits assumed): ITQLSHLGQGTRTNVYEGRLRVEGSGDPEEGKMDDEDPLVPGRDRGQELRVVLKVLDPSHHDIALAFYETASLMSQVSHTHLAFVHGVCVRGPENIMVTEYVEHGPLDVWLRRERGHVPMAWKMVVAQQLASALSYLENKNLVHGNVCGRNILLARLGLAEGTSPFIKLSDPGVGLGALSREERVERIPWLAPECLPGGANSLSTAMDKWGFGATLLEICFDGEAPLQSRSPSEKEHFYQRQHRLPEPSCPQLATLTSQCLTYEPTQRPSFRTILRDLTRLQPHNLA

SMILES | Kd (TYK2 JH2) | IC50 [1]
CNc1ncc(-c2nc3ccc(C4CCOCC4)cn3n2)c2cc(NC(=O)C3CC3)ncc12 [Example 1035] | ≤ 100 nM | ≤ 500 nM
CNc1ncc(-c2nc3c(F)cc(N4CCOCC4)cn3n2)c2cc(NC(=O)C3CC3)ncc12 [Example 1036] | ≤ 100 nM | ≤ 500 nM
CNc1ncc(-c2nc3ccc(N4CC(C)(O)C4)cn3n2)c2cc(NC(=O)C3CC3)ncc12 [Example 1037] | ≤ 100 nM | ≤ 500 nM
CNc1ncc(-c2nc3cccc(OC)n3n2)c2cc(NC(=O)C3CC3)ncc12 [Example 1039] | ≤ 100 nM | ≤ 500 nM
CNc1ncc(-c2nc3ccc(C(F)F)cn3n2)c2cc(NC(=O)C3CC3)ncc12 [Example 1040] | ≤ 100 nM | ≤ 500 nM
CNc1ncc(-c2nc3ccc(-c4ccn(C)n4)cn3n2)c2cc(NC(=O)C3CC3)ncc12 [Example 1042] | ≤ 100 nM | ≤ 500 nM
CNc1ncc(-c2nc3ccc(N4CCOC(CCCO)C4)cn3n2)c2cc(NC(=O)C3CC3)ncc12 (stereo not drawn) [Example 1053] | ≤ 100 nM | ≤ 500 nM
CNc1ncc(-c2cc3cc(OC)ccc3o2)c2cc(NC(=O)C3CC3)ncc12 [Example 1054] | ≤ 100 nM | ≤ 500 nM
CNc1ncc(-c2cn3cc(C)ccc3n2)c2cc(NC(=O)C3CC3)ncc12 [Example 1056] | ≤ 100 nM | ≤ 500 nM
CNc1ncc(-c2nc3cc(N4CCO[C@H](C(F)F)C4)ccc3o2)c2cc(NC(=O)[C@H]3C[C@H]3C)ncc12 [Example 1058] | ≤ 100 nM | ≤ 500 nM
CNc1ncc(-c2nc3cc(N4CCO[C@@H](C(F)F)C4)ccc3o2)c2cc(NC(=O)[C@H]3C[C@H]3C)ncc12 [Example 1059] | ≤ 100 nM | ≤ 500 nM
CNc1ncc(-c2nc3cc(OC)ccc3o2)c2cc(NC(=O)[C@@H]3C[C@H]3C)ncc12 [Example 1061, (1R,2R)-N-(5-(5-methoxybenzo[d]oxazol-2-yl)-8-(methylamino)-2,7-naphthyridin-3-yl)-2-methylcyclopropane-1-carboxamide] | ≤ 100 nM | ≤ 500 nM
CNc1ncc(-c2nc3cc(N4C[C@@H](C)O[C@@H](C)C4)ccc3o2)c2cc(NC(=O)[C@@H]3C[C@@H]3F)ncc12 [Example 1062, (1S,2S)-N-[5-[5-[(2R,6S)-2,6-dimethylmorpholin-4-yl]-1,3-benzoxazol-2-yl]-8-(methylamino)-2,7-naphthyridin-3-yl]-2-fluoro-cyclopropanecarboxamide] | ≤ 100 nM | ≤ 500 nM
CNc1ncc(-c2nc3cc(N4C[C@@H](C)O[C@@H](C)C4)ccc3o2)c2cc(NC(=O)[C@H]3C[C@H]3C)ncc12 [Example 1063, (1S,2R)-N-[5-[5-[(2R,6S)-2,6-dimethylmorpholin-4-yl]-1,3-benzoxazol-2-yl]-8-(methylamino)-2,7-naphthyridin-3-yl]-2-methyl-cyclopropanecarboxamide] | ≤ 100 nM | ≤ 500 nM
CNc1ncc(-c2nc3cc(N4CCOCC4)ccc3o2)c2cc(NC(=O)C3C[C@@H]3C(F)(F)F)ncc12 (stereo partly drawn) [Example 1065, N-(8-(methylamino)-5-(5-morpholinobenzo[d]oxazol-2-yl)-2,7-naphthyridin-3-yl)-2-(trifluoromethyl)cyclopropane-1-carboxamide] | ≤ 100 nM | ≤ 500 nM
CNc1ncc(-c2nc3cc(N4C[C@H](C)O[C@@H](C)C4)ccc3o2)c2cc(NC(=O)[C@H]3C[C@H]3C)ncc12 [Example 1068, (1S,2R)-N-[5-[5-[(2S,6S)-2,6-dimethylmorpholin-4-yl]-1,3-benzoxazol-2-yl]-8-(methylamino)-2,7-naphthyridin-3-yl]-2-methyl-cyclopropanecarboxamide] | ≤ 100 nM | ≤ 500 nM
CNc1ncc(-c2nc3cc(N4C[C@@H](C)O[C@H](C)C4)ccc3o2)c2cc(NC(=O)[C@H]3C[C@H]3C)ncc12 [Example 1070, (1S,2R)-N-(5-(5-((2R,6R)-2,6-dimethylmorpholino)benzo[d]oxazol-2-yl)-8-(methylamino)-2,7-naphthyridin-3-yl)-2-methylcyclopropane-1-carboxamide] | ≤ 100 nM | ≤ 500 nM
CNc1ncc(C#Cc2ccc(N3CCOCC3)cc2)c2cc(NC(=O)[C@H]3C[C@H]3C)ncc12 [Example 1076, (1S,2R)-2-methyl-N-(8-(methylamino)-5-((4-morpholinophenyl)ethynyl)-2,7-naphthyridin-3-yl)cyclopropane-1-carboxamide] | ≤ 100 nM | ≤ 500 nM
CCC1CN(c2ccc3nc(-c4cnc(NC)c5cnc(NC(=O)[C@H]6C[C@H]6C)cc45)nn3c2)CCO1 (stereo partly drawn) [Example 1077, (1S,2R)-N-[5-[6-(2-ethylmorpholin-4-yl)-[1,2,4]triazolo[1,5-a]pyridin-2-yl]-8-(methylamino)-2,7-naphthyridin-3-yl]-2-methyl-cyclopropanecarboxamide] | ≤ 100 nM | ≤ 500 nM
CNc1ncc(-c2nc3ccc(N4CCO[C@@H](C)C4)cn3n2)c2cc(NC(=O)C3CC3(C)C)ncc12 (stereo partly drawn) [Example 1080, 2,2-dimethyl-N-(8-(methylamino)-5-(6-((S)-2-methylmorpholino)-[1,2,4]triazolo[1,5-a]pyridin-2-yl)-2,7-naphthyridin-3-yl)cyclopropane-1-carboxamide] | ≤ 100 nM | ≤ 500 nM

Next, values leading:

Kd (TYK2 JH2) | IC50 [1] | SMILES
≤ 100 nM | ≤ 500 nM | CNc1ncc(-c2nc3ccc(N4CCO[C@H](C(C)(C)OC)C4)cn3n2)c2cc(NC(=O)C3CC3)ncc12 [Example 1033]
≤ 100 nM | ≤ 500 nM | CNc1ncc(-c2nc3ccc(C4=CCOCC4)cn3n2)c2cc(NC(=O)C3CC3)ncc12 [Example 1034]
≤ 100 nM | ≤ 500 nM | CNc1ncc(-c2nc3ccc(-n4cccn4)cn3n2)c2cc(NC(=O)C3CC3)ncc12 [Example 1038]
≤ 100 nM | ≤ 500 nM | CNc1ncc(-c2nc3ccc(C(C)(C)O)cn3n2)c2cc(NC(=O)C3CC3)ncc12 [Example 1041]
≤ 100 nM | ≤ 500 nM | CNc1ncc(-c2nc3ccc(N4CCOC(C(C)O)C4)cn3n2)c2cc(NC(=O)C3CC3)ncc12 (stereo not drawn) [Example 1043]
≤ 100 nM | ≤ 500 nM | CNc1ncc(-c2nc3ccc(N4CCOC(C(C)(C)F)C4)cn3n2)c2cc(NC(=O)C3CC3)ncc12 (stereo not drawn) [Example 1048]
≤ 100 nM | ≤ 500 nM | CNc1ncc(-c2cn3cc(N4CCO[C@H](C)C4)ccc3n2)c2cc(NC(=O)C3CC3)ncc12 [Example 1051]
≤ 100 nM | ≤ 500 nM | CNc1ncc(-c2cn3cc(N4CCO[C@@H](C)C4)ccc3n2)c2cc(NC(=O)C3CC3)ncc12 [Example 1052]
≤ 100 nM | ≤ 500 nM | CNc1ncc(-c2cn3cc(C)cc(F)c3n2)c2cc(NC(=O)C3CC3)ncc12 [Example 1055]
≤ 100 nM | ≤ 500 nM | CNc1ncc(-c2nc3cc(N4CCOC(C(F)F)C4)ccc3o2)c2cc(NC(=O)[C@H]3C[C@H]3C)ncc12 (stereo partly drawn) [Example 1057, (1S,2R)—N-(5-(5-(2-(difluoromethyl)morpholino)benzo[d]oxazol-2-yl)-8-(methylamino)-2,7-naphthyridin-3-yl)-2-methylcyclopropane-1-carboxamide]
≤ 100 nM | ≤ 500 nM | CNc1ncc(-c2nc3cc(OC)ccc3o2)c2cc(NC(=O)[C@H]3C[C@@H]3C)ncc12 [Example 1060, (1S,2S)-N-(5-(5-methoxybenzo[d]oxazol-2-yl)-8-(methylamino)-2,7-naphthyridin-3-yl)-2-methylcyclopropane-1-carboxamide]
≤ 100 nM | ≤ 500 nM | CNc1ncc(-c2nc3ccc(N4CCOCC4)cn3n2)c2cc(NC(=O)C3CC3(F)F)ncc12 (stereo not drawn) [Example 1071, 2,2-difluoro-N-(8-(methylamino)-5-(6-morpholino-[1,2,4]triazolo[1,5-a]pyridin-2-yl)-2,7-naphthyridin-3-yl)cyclopropane-1-carboxamide]
≤ 100 nM | ≤ 500 nM | CNc1ncc(-c2nc3ccc(N4CCOCC4)cn3n2)c2cc(NC(=O)C3(C(F)F)CC3)ncc12 [Example 1072, 1-(difluoromethyl)-N-[8-(methylamino)-5-(6-morpholino-[1,2,4]triazolo[1,5-a]pyridin-2-yl)-2,7-naphthyridin-3-yl]cyclopropanecarboxamide]
≤ 100 nM | ≤ 500 nM | CNc1ncc(C#Cc2ccc(OCF)cc2)c2cc(NC(=O)[C@H]3C[C@H]3C)ncc12 [Example 1073, (1S,2R)-N-[5-[2-[4-(fluoromethoxy)phenyl]ethynyl]-8-(methylamino)-2,7-naphthyridin-3-yl]-2-methyl-cyclopropanecarboxamide]
≤ 100 nM | ≤ 500 nM | CNc1ncc(C#Cc2ccc(OC)cn2)c2cc(NC(=O)C3CCOCC3)ncc12 [Example 1081, N-[5-[2-(5-methoxy-2-pyridyl)ethynyl]-8-(methylamino)-2,7-naphthyridin-3-yl]tetrahydropyran-4-carboxamide]
≤ 100 nM | ≤ 500 nM | CNc1ncc(C#Cc2ccc(OC)cn2)c2cc(NC(=O)N3CCOCC3)ncc12 [Example 1082, N-[5-[2-(5-methoxy-2-pyridyl)ethynyl]-8-(methylamino)-2,7-naphthyridin-3-yl]morpholine-4-carboxamide]
